# From patent publication US20120115798A1, “METHOD FOR IMPROVING THE IMMUNITY OF A COMPANION ANIMAL” (priority 2010, published 2012)
# Assays:
# Type in all cases: in vivo, dog (Labrador Retrievers)
# CD18+ immune cells = assay: Flow cytometry of CD18+ immune cells in blood of dogs fed mannoheptulose diet; details: for CD18+ immune cells: analyzed by age
# Source text: Eighty (n=80) Labrador Retrievers were randomized by age, gender, and littermate to receive either a complete and nutritionally balanced control diet that is similar to Eukanuba Senior Large Breed or an experimental diet that is identical to the control diet except for the inclusion of mannoheptulose as disclosed below. The dogs were split into two study groups. Study 1: A total of 39 older Labrador Retrievers are fed a nutritionally-balanced composition providing mannoheptulose at levels of 0 or about 2 mg/kg of body weight of the dog. Average age of the dogs (12 neutered males, 27 spayed females) at the start of a 4-year study is 6.7 years with a range of 5.1 to 8.2 years of age for the youngest and oldest dog within the cohort, respectively. The control composition is fed as a nutritionally-balanced composition, and it contains no mannoheptulose (0 mg/kg), avocado extract, avocado meal, or avocado concentrate. The test composition is the nutritionally-balanced control composition formulated with avocado extract, avocado meal, or avocado concentrate to provide mannoheptulose at a dose of about 2 mg/kg body weight of the dog. Older dogs are fed one-half their daily allotment of food at 0730 and 1430 each day. Dogs were fed to maintain body weight and body composition score (BCS) within a 2-4 score range. If food adjustments were made, they were made on a quarterly basis. All dogs were fasted overnight and morning meals were withheld until blood collections could be conducted for all immune measurements. Water is provided ad lib. Study 2: A total of 41 younger Labrador Retrievers are fed a nutritionally-balanced composition providing mannoheptulose at levels of 0 or about 2 mg/kg of body weight of the dog. Average age of the dogs (12 neutered males, 29 spayed females) at the start of the 36-month feeding study is 4.0 years with a range of 2.0 to 6.1 years of age for the youngest and oldest dog within the cohort, respectively. […] Cell populations were analyzed on a FACScan Flow Cytometer (Becton Dickinson) using CellQuest Pro Software.
# T cells = assay: Lymphocyte blastogenesis (3H-thymidine), T cell mitogenic stimulation of PBMCs from dogs fed mannoheptulose diet
# Source text: (§1) Phytohaemagglutinin (PHA), the lectin extract from the red kidney bean (Phaseolus vulgaris), contains potent, T-cell mitogenic activity (Hammerstrom, S. et al. (1982) Proc. Nall. Acad. Sci. USA 79, 1611-1615). Pokeweed mitogen (PWM), derived from Phytolacca Americana, is a B cell mitogen (Schreck et al., Annals of Clinical and Laboratory Science, Vol 12, Issue 6, 455-462). Together these three mitogens are used to stimulate immune cells in vitro in the lymphocyte blastogenesis assay, a well accepted indicator of immune response in vivo. Many studies have shown this assay to be responsive to the age-associated decline in immune system response (Goldrosen et al., 1977—Journal of surgical oncology 9: 229-234). A lower proliferative capacity indicates the immune cells cannot become activated and multiply as efficiently (a key step in the process of mounting an effective immune response).
# (§2) Eighty (n=80) Labrador Retrievers were randomized by age, gender, and littermate to receive either a complete and nutritionally balanced control diet that is similar to Eukanuba Senior Large Breed or an experimental diet that is identical to the control diet except for the inclusion of mannoheptulose as disclosed below. The dogs were split into two study groups.
# Study 1: A total of 39 older Labrador Retrievers are fed a nutritionally-balanced composition providing mannoheptulose at levels of 0 or about 2 mg/kg of body weight of the dog. Average age of the dogs (12 neutered males, 27 spayed females) at the start of a 4-year study is 6.7 years with a range of 5.1 to 8.2 years of age for the youngest and oldest dog within the cohort, respectively. The control composition is fed as a nutritionally-balanced composition, and it contains no mannoheptulose (0 mg/kg), avocado extract, avocado meal, or avocado concentrate. The test composition is the nutritionally-balanced control composition formulated with avocado extract, avocado meal, or avocado concentrate to provide mannoheptulose at a dose of about 2 mg/kg body weight of the dog. […]
# B cells = assay: Lymphocyte blastogenesis (3H-thymidine), B cell mitogenic stimulation of PBMCs from dogs fed mannoheptulose diet
# Source text: as §1
# as §2, with “groups. […]” for “groups.”
# 8-OHdG = assay: Serum 8-OHdG ELISA (DNA oxidation) in dogs fed mannoheptulose diet
# Source text: 8-Oxo-2′-deoxyguanosine (8-OHdG) is an oxidized derivative of deoxyguanosine. 8-OHdG is one of the major products of DNA oxidation. As part of the immune response, T and B cells must proliferate (become activated and divide). A key step to robust proliferation is DNA replication. If cells have damaged DNA or must repair DNA, this crucial step can be hindered. […] By lowering DNA damage in the mannoheptulose fed dogs, immune cell replication would be facilitated, helping to enable a key step in the activation cascade of the immune system. Eighty (n=80) Labrador Retrievers were randomized by age, gender, and littermate to receive either a complete and nutritionally balanced control diet that is similar to Eukanuba Senior Large Breed or an experimental diet that is identical to the control diet except for the inclusion of mannoheptulose as disclosed below. The dogs were split into two study groups. Study 1: A total of 39 older Labrador Retrievers are fed a nutritionally-balanced composition providing mannoheptulose at levels of 0 or about 2 mg/kg of body weight of the dog. […] Amount of 8-OHDG is quantified using a commercially available ELISA kit from Oxis Health Products, catalog #21026. […] Add […] of the Stop Solution, mix, wait 3 minutes and read the absorbance at 450 nm.
# [1] = summary table, aging dogs consuming diet with MH, direction of change
compound,measurement,setting,value
O=C(CO)[C@@H](O)[C@@H](O)[C@H](O)[C@H](O)CO [mannoheptulose],CD18+ immune cells,"CD18+ immune cells; dog group 1 (older dogs), test diet delivering 2 mg mannoheptulose per kg body weight vs diet matched controls, FIG. 1",significant attenuation in the increase of CD18+ immune cells
same,CD18+ immune cells,"CD18+ immune cells; dog group 2 (younger dogs), test diet with mannoheptulose about 2 mg/kg vs diet matched controls, FIG. 2",trend for attenuation in the increase of CD18+ immune cells
same,% CD18 + cells,CD18+ immune cells; [1],↓
same,T cell mitogenic stimulation to ConA,"T cells; dog groups 1 and 2, mannoheptulose diet about 2 mg/kg vs control diet, FIGS. 3 and 4",either a statistical trend or a statistical improvement in T cell mitogenic stimulation to ConA
same,T cell mitogenic stimulation to PHA,"T cells; dog groups 1 and 2, mannoheptulose diet about 2 mg/kg vs control diet, FIGS. 5 and 6",either a statistical trend or a statistical improvement in T cell mitogenic stimulation to PHA
same,T cell proliferation,T cells; [1],↑
same,B cell mitogenic stimulation to PWM,"B cells; dog groups 1 and 2, mannoheptulose diet about 2 mg/kg vs control diet, FIGS. 7 and 8",either a statistical trend or a statistical improvement in B cell mitogenic stimulation to PWM
same,B cell proliferation,B cells; [1],↑
same,serum 8-OHdG,"8-OHdG; dog group 1, mannoheptulose diet vs control diet, FIG. 9",significantly lower serum 8-OHdG
same,DNA damage,8-OHdG; [1],↓
